For experiment [1], the target named is influenza B neuraminidase. The format is biochemical, influenza B virus. The note with it: read-out: IC50.
Experiment [2] concerns the target A/H1N1pdm09 neuraminidase. It counts as biochemical, influenza A/H1N1pdm09 virus. The note with it: read-out: IC50.

The structures appear in SMILES notation. Values joined by “and” are separate entries in the source; they are usually repeats but may differ in a detail not shown here. Equal entries are not always repeated.

A word on the IC50: it is the concentration at which inhibition is half-maximal.

As for `CCOC(=O)C1=C[C@@H](OC(CC)CC)[C@H](NC(C)=O)[C@@H](N)C1` [Oseltamivir, oseltamivir phosphate], the IC50 in experiment [1] was 14 nM.

For `CCC(CC)[C@H](NC(C)=O)[C@@H]1[C@H](O)[C@@H](C(=O)O)C[C@H]1N=C(N)N` [Peramivir, peramivir hydrate], the concentration for half-maximal inhibition (IC50) in experiment [2] was 0.45 nM and 0.65 nM and 0.26 nM.

(Values after article PMC6379637, “Consecutive influenza surveillance of neuraminidase mutations and neuraminidase inhibitor resistance in Japan” (Influenza and Other Respiratory Viruses, 2019).)
